Experimental data as given in patent publication US20190192699A1, “NUCLEAR IMAGING AND RADIOTHERAPEUTICS AGENTS TARGETING CARBONIC ANHYDRASE IX AND USES THEREOF” (THE JOHNS HOPKINS UNIVERSITY, priority 2016, published 2019).

Test system: SK-RC-52 xenografts
Assay: Biodistribution of [111In]XYIMSR-01 and [177Lu]XYIMSR-01
Format: in vivo, mice
Experimental: Cell Lines and Mouse Models. Animal experiments were performed in accordance with protocols approved by the Johns Hopkins Animal Care and Use Committee (ACUC). Six-week-old female NOD/SCID mice were purchased from the Animal Resource Core of the Sidney Kimmel Comprehensive Cancer Center of Johns Hopkins and were subcutaneously injected in the lower left flank or upper right flank with 1×10^6 SK-RC-52 cells in RPMI 1640 GlutaMAX™ media (Life Technologies, Frederick, Md.) supplemented with 1% fetal bovine serum (FBS). Mice were monitored for tumor size and used for SPECT/CT imaging when the size of the tumor reached 100 mm^3.
Biodistribution of [^111In]XYIMSR-01 and [^177Lu]XYIMSR-01. Mice bearing SK-RC-52 xenografts at lower left flank were injected intravenously with 740 kBq (20 μCi) of [^111In]XYIMSR-01, or [^177Lu]XYIMSR-01 in 200 μL of PBS. For competitive blocking, same tumor bearing mice were injected with 740 kBq (20 μCi) of [^111In]XYIMSR-01 and 200 nmole of 1 in 200 μL of PBS. At 1 h, 4 h, 8 h, 24 h and 48 h post-injection, mice were sacrificed by cervical dislocation and the blood was immediately collected by cardiac puncture. Heart, lungs, pancreas, spleen, fat, brain, muscle, small intestines, liver, stomach, kidney, urinary bladder, and tumor were collected. Each organ was weighed and the tissue radioactivity was measured with an automated gamma counter (1282 Compugamma CS, Pharmacia/LKBNuclear, Inc., Mt. Waverly, Vic. Australia). The percentage of injected dose per gram of tissue (% ID/g) was calculated by comparison with samples of a standard dilution of the initial dose. All measurements were corrected for radioactive decay.
Data were expressed as mean±standard deviation (SD). Prism software (GraphPAD, San Diego, Calif.) was used to determine statistical significance. Statistical significance was calculated using a paired t test. P-values […] were considered significant.

[1] = 24 hr + Block (200 nmole of 1 co-injected)

CC(CCC(=O)N[C@@H](CC(=O)N[C@@H](CC(=O)N[C@@H](CCCCn1cc(CCCC(=O)Nc2nnc(S(N)(=O)=O)s2)nn1)C(=O)NCCOCCOCCNC(=O)CN1CCN(CC(=O)[O-])CCN(CC(=O)[O-])CCN(CC(=O)[O-])CC1)C(=O)O)C(=O)O)(c1ccc(O)cc1)c1ccc(O)cc1.[177Lu+3] [[^177Lu]XYIMSR-01]
Biodistribution: Bladder (1 hr post-injection): 26.55 ± 11.08 % ID/g
Biodistribution: Blood (1 hr post-injection): 0.55 ± 0.06 % ID/g
Biodistribution: Brain (1 hr post-injection): 0.49 ± 0.08 % ID/g
Biodistribution: Fat (1 hr post-injection): 1.07 ± 0.58 % ID/g
Biodistribution: Heart (1 hr post-injection): 3.59 ± 0.73 % ID/g
Biodistribution: Kidney (1 hr post-injection): 40.77 ± 6.68 % ID/g
Biodistribution: Liver (1 hr post-injection): 4.15 ± 0.39 % ID/g
Biodistribution: Lung (1 hr post-injection): 23.72 ± 6.49 % ID/g
Biodistribution: Muscle (1 hr post-injection): 1.42 ± 0.40 % ID/g
Biodistribution: Pancreas (1 hr post-injection): 2.03 ± 0.25 % ID/g
Biodistribution: Small intestine (1 hr post-injection): 6.11 ± 0.68 % ID/g
Biodistribution: Spleen (1 hr post-injection): 0.29 ± 0.07 % ID/g
Biodistribution: Stomach (1 hr post-injection): 12.20 ± 1.66 % ID/g
Biodistribution: Tumor (1 hr post-injection): 26.91 ± 6.06 % ID/g
Tumor/Blood ratio (1 hr post-injection): 47.9 ± 13.4
Tumor/Kidney ratio (1 hr post-injection): 0.6 ± 0.2
Tumor/Muscle ratio (1 hr post-injection): 18.8 ± 5.0
Biodistribution: Bladder (4 hr post-injection): 6.60 ± 3.66 % ID/g
Biodistribution: Blood (4 hr post-injection): 0.18 ± 0.02 % ID/g
Biodistribution: Brain (4 hr post-injection): 0.33 ± 0.04 % ID/g
Biodistribution: Fat (4 hr post-injection): 0.56 ± 0.14 % ID/g
Biodistribution: Heart (4 hr post-injection): 1.52 ± 0.54 % ID/g
Biodistribution: Kidney (4 hr post-injection): 19.17 ± 2.82 % ID/g
Biodistribution: Liver (4 hr post-injection): 1.79 ± 0.44 % ID/g
Biodistribution: Lung (4 hr post-injection): 10.35 ± 1.86 % ID/g
Biodistribution: Muscle (4 hr post-injection): 0.65 ± 0.19 % ID/g
Biodistribution: Pancreas (4 hr post-injection): 0.99 ± 0.19 % ID/g
Biodistribution: Small intestine (4 hr post-injection): 2.64 ± 0.17 % ID/g
Biodistribution: Spleen (4 hr post-injection): 0.15 ± 0.03 % ID/g
Biodistribution: Stomach (4 hr post-injection): 6.06 ± 1.57 % ID/g
Biodistribution: Tumor (4 hr post-injection): 26.28 ± 4.25 % ID/g
Tumor/Blood ratio (4 hr post-injection): 150.3 ± 34.6
Tumor/Kidney ratio (4 hr post-injection): 1.4 ± 0.4
Tumor/Muscle ratio (4 hr post-injection): 43.7 ± 16.8
Biodistribution: Bladder (8 hr post-injection): 6.00 ± 3.52 % ID/g
Biodistribution: Blood (8 hr post-injection): 0.16 ± 0.05 % ID/g
Biodistribution: Brain (8 hr post-injection): 0.44 ± 0.08 % ID/g
Biodistribution: Fat (8 hr post-injection): 0.46 ± 0.17 % ID/g
Biodistribution: Heart (8 hr post-injection): 1.49 ± 0.59 % ID/g
Biodistribution: Kidney (8 hr post-injection): 18.99 ± 6.14 % ID/g
Biodistribution: Liver (8 hr post-injection): 1.87 ± 0.77 % ID/g
Biodistribution: Lung (8 hr post-injection): 8.87 ± 3.30 % ID/g
Biodistribution: Muscle (8 hr post-injection): 0.47 ± 0.18 % ID/g
Biodistribution: Pancreas (8 hr post-injection): 1.03 ± 0.50 % ID/g
Biodistribution: Small intestine (8 hr post-injection): 3.67 ± 0.93 % ID/g
Biodistribution: Spleen (8 hr post-injection): 0.29 ± 0.05 % ID/g
Biodistribution: Stomach (8 hr post-injection): 6.15 ± 2.65 % ID/g
Biodistribution: Tumor (8 hr post-injection): 27.48 ± 4.32 % ID/g
Tumor/Blood ratio (8 hr post-injection): 178.6 ± 36.6
Tumor/Kidney ratio (8 hr post-injection): 1.5 ± 0.3
Tumor/Muscle ratio (8 hr post-injection): 65.0 ± 19.0
Biodistribution: Bladder [1]: 0.73 ± 0.55 % ID/g
Biodistribution: Blood [1]: 0.04 ± 0.02 % ID/g
Biodistribution: Brain [1]: 0.04 ± 0.01 % ID/g
Biodistribution: Fat [1]: 0.03 ± 0.03 % ID/g
Biodistribution: Heart [1]: 0.08 ± 0.04 % ID/g
Biodistribution: Kidney [1]: 1.54 ± 1.44 % ID/g
Biodistribution: Liver [1]: 0.46 ± 0.34 % ID/g
Biodistribution: Lung [1]: 0.73 ± 0.58 % ID/g
Biodistribution: Muscle [1]: 0.03 ± 0.01 % ID/g
Biodistribution: Pancreas [1]: 0.05 ± 0.03 % ID/g
